Data as given in article PMC11940764 (2025).

Experiments:
poly(A) (RNA, polymer) A = assay: fluorescence titration, site-independent model; conditions: TE buffer (Tris-HCl 10 mM, EDTA 1 mM) pH 8.0; dye 1 µM; unit not given
[1] = test system: poly(A)·poly(U) (RNA, polymer) A/U; assay: fluorescence titration; CD (exciton-coupled ICD); conditions: fluorescence: TE buffer pH 8.0, dye 1 µM; CD: phosphate buffer 10 mM pH 7.5; no Kb given

With `COc1cc2c(/C=C3/Sc4ccccc4N3C)cc[n+](C)c2cc1OC` the Kb (poly(A) (RNA, polymer) A) was 9.5 × 10^6 and the binding [1] was “yes”.
